Measured values as given in the supplement of paper PMC10307832.

Key:
Assay in all cases: relative viability (nuclei count vs DMSO), 5 days (fraction); higher = more cells survive
Tanzisertib + Decitabine = compound: O[C@H]1CC[C@H](Nc2ncc3nc(Nc4c(F)cc(F)cc4F)n([C@H]4CCOC4)c3n2)CC1 [Tanzisertib] + Nc1ncn([C@H]2C[C@H](O)[C@@H](CO)O2)c(=O)n1 [Decitabine] (partner 2 µM)
Method in brief: (§1)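 Nuclei were stained with Hoechst during a one-step fixation (final 0.05% Triton X-100, 1% formaldehyde, 1 ug/ml Hoechst) carried out 5 days after dosing, then counted on 4× images. The cells, lung cancer lines in 1536-well plates, had been dosed by pin tool the day after seeding with one drug alone or a fixed anchor-drug dose plus five library-drug doses (not always all listed) in √10 steps. Relative viability is the nuclei count in treated wells divided by that in vehicle wells, and each value is the median of duplicate plates.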

Tanzisertib + Linsitinib = compound: O[C@H]1CC[C@H](Nc2ncc3nc(Nc4c(F)cc(F)cc4F)n([C@H]4CCOC4)c3n2)CC1 [Tanzisertib] + C[C@]1(O)C[C@@H](c2nc(-c3ccc4ccc(-c5ccccc5)nc4c3)c3c(N)nccn32)C1 [Linsitinib] (partner 1 µM)
Method in brief: as §1

Tanzisertib + Pemetrexed = compound: O[C@H]1CC[C@H](Nc2ncc3nc(Nc4c(F)cc(F)cc4F)n([C@H]4CCOC4)c3n2)CC1 [Tanzisertib] + Nc1nc2[nH]cc(CCc3ccc(C(=O)N[C@@H](CCC(=O)O)C(=O)O)cc3)c2c(=O)[nH]1 [Pemetrexed] (partner 0.2 µM)
Method in brief: as §1

[1] = compound: C[C@@H](N)c1ccc(C(=O)Nc2ccnc3[nH]ccc23)cc1 + CC1(C)CCC(c2ccc(Cl)cc2)=C(CN2CCN(c3ccc(C(=O)NS(=O)(=O)c4ccc(N[C@H](CCN5CCOCC5)CSc5ccccc5)c(S(=O)(=O)C(F)(F)F)c4)cc3)CC2)C1 [Navitoclax] (partner 0.5 µM)
Method in brief: as §1

Question: With UMC-11 as the cell line, how does the relative viability (Tanzisertib + Decitabine; first compound 0.08 µM) read?
Answer: 0.662

Question: What about the relative viability (Tanzisertib + Decitabine; first compound 0.253 µM) of the same cell line?
Answer: 0.688

Question: What about the relative viability (Tanzisertib + Decitabine; first compound 0.8 µM) of the same cell line?
Answer: 0.654

Question: What about the relative viability (Tanzisertib + Decitabine; first compound 2.53 µM) of the same cell line?
Answer: 0.852

Question: And the relative viability (Tanzisertib + Decitabine; first compound 8 µM)?
Answer: 0.85

Question: What about the relative viability (Tanzisertib + Linsitinib; first compound 0.08 µM) of the same cell line?
Answer: 1

Question: What about the relative viability (Tanzisertib + Linsitinib; first compound 0.253 µM) of the same cell line?
Answer: 0.954

Question: What about the relative viability (Tanzisertib + Linsitinib; first compound 0.8 µM) of the same cell line?
Answer: 1.03

Question: What about the relative viability (Tanzisertib + Linsitinib; first compound 2.53 µM) of the same cell line?
Answer: 0.988

Question: What about the relative viability (Tanzisertib + Linsitinib; first compound 8 µM) of the same cell line?
Answer: 1.06

Question: What about the relative viability (Tanzisertib + Pemetrexed; first compound 0.08 µM) of the same cell line?
Answer: 0.801

Question: What about the relative viability (Tanzisertib + Pemetrexed; first compound 0.253 µM) of the same cell line?
Answer: 0.793

Question: And the relative viability (Tanzisertib + Pemetrexed; first compound 0.8 µM)?
Answer: 0.784

Question: What about the relative viability (Tanzisertib + Pemetrexed; first compound 2.53 µM) of the same cell line?
Answer: 0.816

Question: And the relative viability (Tanzisertib + Pemetrexed; first compound 8 µM)?
Answer: 0.833

Question: And the relative viability ([1]; first compound 0.04 µM)?
Answer: 0.318

Question: What about the relative viability ([1]; first compound 0.1265 µM) of the same cell line?
Answer: 0.323

Question: What about the relative viability ([1]; first compound 0.4 µM) of the same cell line?
Answer: 0.332

Question: And the relative viability ([1]; first compound 1.265 µM)?
Answer: 0.27

Question: And the relative viability ([1]; first compound 4 µM)?
Answer: 0.211
